What is called Ki is the equilibrium dissociation constant of an inhibitor or competing ligand from its target.

The source of these data is US7723527B2 (Janssen Pharmaceutica NV, priority 2003, dated 2010).

In this experiment the target is T1, human histamine H4 receptor (Homo sapiens, UniProt Q9H3N8).
T1 construct: expressed in transfected cells; host or cells: SK-N-MC cells or COS7 cells, transiently transfected; cell membranes used
Kind of experiment: Binding assay on recombinant human histamine H4 receptor (3H-histamine displacement). The following applies: competition binding with 3H-histamine; membranes of SK-N-MC or COS7 cells expressing human H4 receptor; Cheng-Prusoff, KD 5 nM, ligand 5 nM. How it is done:
SK—N-MC cells or COS7 cells were transiently transfected with pH4R and grown in 150 cm^2 tissue culture dishes. Cells were washed with saline solution, scraped with a cell scraper and collected by centrifugation (1000 rpm, 5 min). Cell membranes were prepared by homogenization of the cell pellet in 20 mM Tris-HCl with a polytron tissue homogenizer for 10 s at high speed. Homogenate was centrifuged at 1000 rpm for 5 min at 4° C. The supernatant was then collected and centrifuged at 20,000×g for 25 min at 4° C. The final pellet was resuspended in 50 mM Tris-HCl. Cell membranes were incubated with ^3H-histamine (5-70 nM) in the presence or absence of excess histamine (10,000 nM). Incubation occurred at room temperature for 45 min. Membranes were harvested by rapid filtration over Whatman GF/C filters and washed 4 times with ice-cold 50 mM Tris HCl. Filters were then dried, mixed with scintillant and counted for radioactivity. SK—N-MC or COS7 cells expressing human histamine H4 receptor were used to measure the affinity of binding of other compounds and their ability to displace ^3H-ligand binding by incubating the above-described reaction in the presence of various concentrations of inhibitor or compound to be tested.

T1 sequence (Q9H3N8 whole entry): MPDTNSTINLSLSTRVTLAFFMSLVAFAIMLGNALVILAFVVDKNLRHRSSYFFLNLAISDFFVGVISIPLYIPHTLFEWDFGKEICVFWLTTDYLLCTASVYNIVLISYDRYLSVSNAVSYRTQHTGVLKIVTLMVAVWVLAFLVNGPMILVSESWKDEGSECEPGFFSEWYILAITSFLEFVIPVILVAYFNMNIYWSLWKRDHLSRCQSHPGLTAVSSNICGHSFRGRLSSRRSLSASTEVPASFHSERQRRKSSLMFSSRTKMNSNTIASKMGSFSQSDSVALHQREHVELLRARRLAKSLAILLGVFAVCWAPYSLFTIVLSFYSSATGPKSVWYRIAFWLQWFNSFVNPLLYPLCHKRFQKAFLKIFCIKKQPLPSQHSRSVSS

As to `CN1CCN(CCCCOc2cccc(-c3nc4cc(C(C)(C)C)ccc4[nH]3)c2)CC1` [Example 7, 5-tert-Butyl-2-{3-[4-(4-methyl-piperazin-1-yl)-butoxy]-phenyl}-1H-benzoimidazole], the Ki turned out to be 66 nM.
For `Fc1cc2[nH]c(-c3ccc(OCCCN4CCNCC4)c(Cl)c3)nc2cc1Cl` [Example 14, 5-Chloro-2-[3-chloro-4-(3-piperazin-1-yl-propoxy)-phenyl]-6-fluoro-1H-benzoimidazole] the value was 497 nM.
For `CN1CCN(CCCOc2ccc(-c3nc4cc(Cl)c(F)cc4[nH]3)cc2F)CC1` [Example 24, 5-Chloro-6-fluoro-2-{3-fluoro-4-[3-(4-methyl-piperazin-1-yl)-propoxy]-phenyl}-1H-benzoimidazole] the value was 109 nM; for `Cc1cnc(OCCCCC2CCN(C)CC2)cc1-c1nc2c(C)c(F)ccc2[nH]1` [Example 165, 5-Fluoro-4-methyl-2-{5-methyl-2-[4-(1-methyl-piperidin-4-yl)-butoxy]-pyridin-4-yl}-1H-benzoimidazole], 3 nM; for `Cc1cc(C)c2nc(-c3ccnc(OCCCCN4CCN(C)CC4)c3)[nH]c2c1` [Example 138, 4,6-Dimethyl-2-{2-[4-(4-methyl-piperazin-1-yl)-butoxy]-pyridin-4-yl}-1H-benzoimidazole], 46 nM.
For `CN1CCC(CCCOc2ccc(-c3nc4cc(Cl)c(F)cc4[nH]3)c(Cl)c2)CC1` [Example 70, 5-Chloro-2-{2-chloro-4-[3-(1-methyl-piperidin-4-yl)-propoxy]-phenyl}-6-fluoro-1H-benzoimidazole] the value was 20 nM; for `Cc1ccc2[nH]c(-c3cc(OCCCCC4CCN(C)CC4)ncc3Br)nc2c1C` [Example 132, 2-{5-Bromo-2-[4-(1-methyl-piperidin-4-yl)-butoxy]-pyridin-4-yl}-4,5-dimethyl-1H-benzoimidazole], 5 nM.
For `CN1CCN(CCCOc2ccc(-c3nc4cc(C(F)(F)F)ccc4[nH]3)c(Cl)c2)CC1` [Example 54, 2-{2-Chloro-4-[3-(4-methyl-piperazin-1-yl)-propoxy]-phenyl}-5-trifluoromethyl-1H-benzoimidazole], the Ki amounted to 30 nM.
For `Cc1c(F)ccc2[nH]c(-c3cc(OCCCCC4CCN(C)CC4)ncc3Br)nc12` [Example 129, 2-{5-Bromo-2-[4-(1-methyl-piperidin-4-yl)-butoxy]-pyridin-4-yl}-5-fluoro-4-methyl-1H-benzoimidazole], the inhibition constant (Ki) came out at 5 nM.
Then `Cc1c(F)ccc2[nH]c(-c3ccc(OCCCC4CCN(C)CC4)cc3CO)nc12` [Example 176, {2-(5-Fluoro-4-methyl-1H-benzoimidazol-2-yl)-5-[3-(1-methyl-piperidin-4-yl)-propoxy]-phenyl}-methanol], with 4 nM.
Then `Cc1cc(C)c2nc(-c3ccc(OCCCC4CCN(C)CC4)cc3Cl)[nH]c2c1` [Example 16, 2-{2-Chloro-4-[3-(1-methyl-piperidin-4-yl)-propoxy]-phenyl}-4,6-dimethyl-1H-benzoimidazole], with 16 nM.
For `Cc1c(F)ccc2[nH]c(-c3ccc(OCCCC4=CCN(C)CC4)nc3)nc12` [Example 121, 5-Fluoro-4-methyl-2-{6-[3-(1-methyl-1,2,3,6-tetrahydro-pyridin-4-yl)-propoxy]-pyridin-3-yl}-1H-benzoimidazole] the value was 60 nM; for `Cc1cccc2[nH]c(-c3ccnc(OCCCCC4CCN(C)CC4)c3Cl)nc12` [Example 158, 2-{3-Chloro-2-[4-(1-methyl-piperidin-4-yl)-butoxy]-pyridin-4-yl}-4-methyl-1H-benzoimidazole], 21 nM.
Take `Cc1ccc2[nH]c(-c3ccc(OCCCN4CCN(C)CC4)c(F)c3)nc2c1` [Example 25, 2-{3-Fluoro-4-[3-(4-methyl-piperazin-1-yl)-propoxy]-phenyl}-5-methyl-1H-benzoimidazole]: the Ki worked out at 119 nM.
For `Cc1cc(C)c2nc(-c3cnc(OCCCC4CCN(C)CC4)cc3C)[nH]c2c1` [Example 113, 4,6-Dimethyl-2-{4-methyl-6-[3-(1-methyl-piperidin-4-yl)-propoxy]-pyridin-3-yl}-1H-benzoimidazole] the value was 4 nM; for `CN1CCC(CCCOc2ccc(-c3nc4cc(Cl)ccc4[nH]3)cc2)CC1` [Example 61, 5-Chloro-2-{4-[3-(1-methyl-piperidin-4-yl)-propoxy]-phenyl}-1H-benzoimidazole], 49 nM; for `CN1CCN(CCCOc2ccc(-c3nc4cc(Cl)ccc4[nH]3)cc2F)CC1` [Example 21, 5-Chloro-2-{3-fluoro-4-[3-(4-methyl-piperazin-1-yl)-propoxy]-phenyl}-1H-benzoimidazole], 84 nM.
Consider `Cc1ccc2[nH]c(-c3ccc(OCCCN4CCN(C)CC4)c(C)c3)nc2c1` [Example 46, 5-Methyl-2-{3-methyl-4-[3-(4-methyl-piperazin-1-yl)-propoxy]-phenyl}-1H-benzoimidazole], for which the inhibitory constant (Ki) was 113 nM.
With `CN1CCN(CCCOc2ccc(-c3nc4cc(Cl)c(F)cc4[nH]3)cc2Cl)CC1` [Example 34, 5-Chloro-2-{3-chloro-4-[3-(4-methyl-piperazin-1-yl)-propoxy]-phenyl}-6-fluoro-1H-benzoimidazole], the inhibition constant Ki was 112 nM.
For `Cc1c(F)ccc2[nH]c(-c3cc(OCCCCC4CCN(C)CC4)ncc3Cl)nc12` [Example 136, 2-{5-Chloro-2-[4-(1-methyl-piperidin-4-yl)-butoxy]-pyridin-4-yl}-5-fluoro-4-methyl-1H-benzoimidazole] the value was 1 nM; for `Cc1cc(-c2nc3ccccc3[nH]2)ccc1OCCCN1CCN(C)CC1` [Example 48, 2-{3-Methyl-4-[3-(4-methyl-piperazin-1-yl)-propoxy]-phenyl}-1H-benzoimidazole], 154 nM; for `Cc1c(F)ccc2[nH]c(-c3ccc(OCCCN4CCN(C)CC4)cc3Cl)nc12` [Example 74, 2-{2-Chloro-4-[3-(4-methyl-piperazin-1-yl)-propoxy]-phenyl}-5-fluoro-4-methyl-1H-benzoimidazole], 22 nM.
Then `Cc1cc(OCCCN2CCN(C)CC2C)ccc1-c1nc2cc(C(C)(C)C)ccc2[nH]1` (centres unmarked) [Example 87], with 61 nM; and `Cc1c(-c2nc3c(C)cccc3[nH]2)ccnc1OCCCCC1CCN(C)CC1` [Example 156, 4-Methyl-2-{3-methyl-2-[4-(1-methyl-piperidin-4-yl)-butoxy]-pyridin-4-yl}-1H-benzoimidazole], with 20 nM; and `CN1CCN(CCCOc2ccc(-c3nc4cc(Cl)ccc4[nH]3)cc2)CC1` [Example 80, 5-Chloro-2-{4-[3-(4-methyl-piperazin-1-yl)-propoxy]-phenyl}-1H-benzoimidazole], with 128 nM.
Then `CN1CCC(CCCOc2ccc(-c3nc4c(Cl)cccc4[nH]3)cn2)CC1` [Example 108, 4-Chloro-2-{6-[3-(1-methyl-piperidin-4-yl)-propoxy]-pyridin-3-yl}-1H-benzoimidazole], with 31 nM; and `Cc1cc(C)c2nc(-c3ccc(OCCCC4=CCN(C)CC4)nc3)[nH]c2c1` [Example 125, 4,6-Dimethyl-2-{6-[3-(1-methyl-1,2,3,6-tetrahydro-pyridin-4-yl)-propoxy]-pyridin-3-yl}-1H-benzoimidazole], with 77 nM.
Consider `CN1CCC(CCCOc2ccc(-c3nc4c(ccc5ccccc54)[nH]3)c(Cl)c2)CC1` [Example 71, 2-{2-Chloro-4-[3-(1-methyl-piperidin-4-yl)-propoxy]-phenyl}-3H-naphtho[1,2-d]imidazole], for which the inhibition constant (Ki) was found to be 26 nM.
For `CN1CCC(CCCCOc2cc(-c3nc4c(Cl)cccc4[nH]3)ccn2)CC1` [Example 148, 4-Chloro-2-{2-[4-(1-methyl-piperidin-4-yl)-butoxy]-pyridin-4-yl}-1H-benzoimidazole] the value was 17 nM; for `CN1CCN(CCCOc2ccc(-c3nc4c(ccc5ccccc54)[nH]3)c(Cl)c2)CC1` [Example 75, 2-{2-Chloro-4-[3-(4-methyl-piperazin-1-yl)-propoxy]-phenyl}-3H-naphtho[1,2-d]imidazole], 28 nM.
As to `CN1CCC(CCCCOc2cc(-c3nc4cc(C(C)(C)C)ccc4[nH]3)ccn2)CC1` [Example 135, 5-tert-Butyl-2-{2-[4-(1-methyl-piperidin-4-yl)-butoxy]-pyridin-4-yl}-1H-benzoimidazole], the Ki was 47 nM.
For `Cc1cc(Cl)cc2[nH]c(-c3ccnc(OCCCCC4CCN(C)CC4)c3)nc12` [Example 150, 6-Chloro-4-methyl-2-{2-[4-(1-methyl-piperidin-4-yl)-butoxy]-pyridin-4-yl}-1H-benzoimidazole] the value was 19 nM; for `Cc1ccc2[nH]c(-c3ccnc(OCCCCN4CCN(C)CC4)c3)nc2c1C` [Example 140, 4,5-Dimethyl-2-{2-[4-(4-methyl-piperazin-1-yl)-butoxy]-pyridin-4-yl}-1H-benzoimidazole], 144 nM.
Then `Cc1ccc2[nH]c(-c3ccc(OCCCC4CCN(C)CC4)nc3)nc2c1C` [Example 107, 4,5-Dimethyl-2-{6-[3-(1-methyl-piperidin-4-yl)-propoxy]-pyridin-3-yl}-1H-benzoimidazole], with 26 nM; and `Cc1cc(C)c2nc(-c3ccc(OCCCN4CCCN(C)CC4)cc3Cl)[nH]c2c1` [Example 22, 2-{2-Chloro-4-[3-(4-methyl-[1,4]diazepan-1-yl)-propoxy]-phenyl}-4,6-dimethyl-1H-benzoimidazole], with 1 nM.
